Measurements taken from US20220023269A1, “Methods Of Treating Diabetes In Severe Insulin-Resistant Diabetic Subjects” (Balticgruppen Bio AB, priority 2018, published 2022).

What was measured:
CBA mice on HFD [1] = experiment: Crossover HFD / test material-HFD (2 mg/g) at housing and thermoneutral conditions; format: in vivo
Experimental: 14 weeks old CBA mice were randomised into HFD and test material-HFD (2 mg/g) groups for 2 weeks while housed at 22° C. The two groups were then switched from HFD to test material-HFD and vice versa for an additional 4.5 weeks before transferred from 22° C. to 30° C. (thermoneutrality). After one week at 30° C. the diet was switched again and one week after the switch core body temperature were determined.
(§1) Food intake was measured weekly by giving each cage 200 g pellet. After one week, the amount of pellets consumed were calculated and adjusted according to the number of animals/cage. Body weight was measured weekly. Body composition was assessed using EchoMRI.

[2] = test system: AMPK in primary mouse WT and hIAPPtg islets; experiment: AMPK activation in primary mouse WT and hIAPPtg islets; format: cell-based; conditions: 2.5, 5, 10 μM, 2 hours
Experimental: (§2) All cell lines were lysed in 0.1 M Tris-HCl, pH 6.8, 2% SDS, 10 mM sodium fluoride (SIGMA #S7920), 10 mM β-glycerophosphate (SIGMA #G6376), and 1 mM sodium vanadate (SIGMA #72060) and supernatant collected after 1 minute at 14,000 rpm. Islets (human and mouse) were lysed in 0.1 M Tris-HCl, pH 6.8, 2% SDS, protease inhibitor (Roche #04 693 124 001) and phosphatase inhibitor (Roche #04 906 837 001). Right calf muscle, heart, iWAT, and interscapular BAT was crushed in a pestle using liquid nitrogen and homogenised in ice cold RIPA buffer (150 mM sodium chloride (SIGMA #S7653), 1.0% NP40 (USB), 0.5% sodium deoxycholate (SIGMA #D6750), 0.1% SDS, 50 mM Tris pH 8.0, 20 mM sodium pyrophosphate (SIGMA #71515), 10 mM sodium fluoride, 10 mM β-glycerolphosphate, 1 mM sodium vanadate and protease inhibitor cocktail (Roche #04693124001), 1 tablet/10 ml lysis buffer). The supernatant was collected after 2 min at 14,000 rpm. This procedure was repeated until all fat was eliminated and the supernatant was clear, at 4° C. Samples were analysed on 4-15% polyacrylamide gels. Values were normalised toward AMPKα, β-Actin, GAPDH or the respective non-phosphorylated counterpart.
(§3) Table 3 contains origin of cell lines, growth conditions and settings for activation of AMPK via the test material. […]

[3] = test system: obese, diabetic hIAPPtg mice; experiment: Diet switch in hIAPPtg mice: HFD 9 w then test material-HFD (2 mg/g) 7 w; format: in vivo
Experimental: 10-11 weeks old male hIAPPtg; CBA mice and wild type littermates were fed HFD for 9 weeks. After 9 weeks mice were either sacrificed or randomised into two groups either continuing on HFD or switched to test material-HFD (2 mg/g) for an additional 7 weeks.
as §1
Islets amyloid was quantification was done on pancreatic tissues isolated from hIAPPtg mice on HFD for 16 weeks (n=7 mice/n=69 islets) and hIAPPtg mice on HFD for 9 weeks then switched to test material-HFD (2 mg/g) for 7 weeks (n=5 mice/n=48 islets). Isolated pancreases was direct frozen, sectioned, and amyloid content quantified by staining with Thioflavin-S as previously described (Reference 2). For ex vivo analyses, islets were isolated by collagenase digestion of the pancreas (Reference 1) and cultured in RPMI medium 1640 (GIBCO #11879-0) supplemented with 11.1 or 22.2 mM glucose (GIBCO #A24940-01), 1% fetal bovine serum (GIBCO #10500), 50 U; μg/ml Pen/Strep (Gibco #15140-122), 10 mM Hepes (Umeå University, Laboratory medicine), 1 mM sodium pyruvate (GIBCO #11360-039) and 0.1% 2-Mercaptoethanol (Sigma #M3148). 0, 2.5, 5.0, and 10 μM test material were added from day 0 of culture. For assessing the effect of autophagy inhibition, 3-Methyladenine (3-MA, Aldrich #M9281), 5 μM, was added from day 0 of culture in combination with test material, 5 μM. The control contained DMSO 1:2000. Medium and compounds were changed every second day. After 92 hours of treatment islets were embedded, sectioned and amyloid content quantified by staining with Thioflavin-S as previously described (Reference 2). A minimum of 3 independent experiments was evaluated.

AMPK in human islets = experiment: AMPK activation in human islets; format: cell-based; conditions: 1.0, 2.5, 5.0, 10 μM, 4 hours
Experimental: as §2, §3

CBA mice on HFD [4] = experiment: Arginine-stimulated insulin secretion; format: in vivo; conditions: 0.8 mg/g in HFD, 11 w; arginine 1 g/kg i.p.
Experimental: Arginine-stimulated insulin secretion was determined following i.p. injection of arginine (SIGMA #A5131) (1 g/kg body weight) in non-fasted 21 weeks old CBA mice that had been on HFD or test material-HFD (0.8 mg/g) for 11 w. Blood glucose was measured using Glucometer (Ultra 2, One Touch) and plasma insulin analysed via the ultrasensitive mouse insulin ELISA kit (Chrystal Chem Inc. #90080). Area under the Curve (AUC) was calculated according to the trapezoid rule.

increase in core temperature vs HFD (nonsignificant) (CBA mice on HFD [1]; 30° C. housing): 0.2 °C
core temperature (CBA mice on HFD [1]; 30° C. housing, one week after switch, n=5): 37.9 °C
Compound: O=C(Nc1nc(=O)n(Cc2ccc(Cl)cc2)s1)c1ccc(Cl)cc1 [test material, 4-chloro-N-[2-[(4-chlorophenyl)methyl]-3-oxo-1,2,4-thiadiazol-5-yl]benzamide]
body weight gain (CBA mice on HFD [1]; 2 mg/g in HFD, day 1-14, housing temperature): gained almost no weight
body weight at thermoneutrality, continued on test material-HFD (CBA mice on HFD [1]; 30° C. from day 49): still averted weight gain
body weight after switch from HFD to test material-HFD at thermoneutrality (CBA mice on HFD [1]; 30° C., switch at day 57): rapidly started to lose weight
body weight after switch from HFD to test material-HFD (CBA mice on HFD [1]; switch at day 15, housing temperature): rapidly started to lose weight
pAMPKα [2]: directly increased pAMPKα
body fat ([3]; 2 mg/g): induced body weight and body fat loss
body weight ([3]; 2 mg/g): induced body weight and body fat loss
amount of islet amyloid formed ([3]; 2 mg/g for 7 w, vs continued HFD): significantly reduced
established hyperglycemia (fasted blood glucose) ([3]; 2 mg/g, 6 w after the switch): reverted
established hyperinsulinemia (fasted insulin) ([3]; 2 mg/g, 6 w after the switch): reverted
established insulin resistance (HOMA-IR) ([3]; 2 mg/g, 6 w after the switch): reverted
pAMPKα (AMPK in human islets): directly increased pAMPKα
arginine stimulation of insulin secretion, increase vs HFD (CBA mice on HFD [4]): 2 fold
